The subject of series [1] is A549, H1975, and H299 cancer cells. As to the kind of experiment: transwell migration, panel of NSCLC lines. It counts as cell-based, human. As to conditions: for IC50: Homo sapiens, range over A549, H1975 and H299, read-out: IC50 values across cell lines; for toxicity and effects on cell proliferation: in the millimolar range. On the procedure: Migration assay: Cancer cell chemotaxis was performed towards a serum gradient in a modified Boyden chamber consisting of a cell culture insert (6.4 mm diameter, 8-μm pore polyethylene tetraphtalate membrane, [Becton Dickenson]) seated in each well of a 24-well companion plate (Becton Dickinson). Briefly, cancer cells were grown as subconfluent monolayer cultures then starved for 36 hours in serum-free M5 medium. After detachment and dissociation with 5 mM EDTA, single-cell suspensions were prepared by filtration through a 35 μm mesh cell strainer (Becton Dickinson). Cells were counted and a total of 10^5 cells suspended in serum-free medium were seeded into the upper chamber of an insert, then positioned in a 24-well plate, containing medium with or without 10% serum. When used, drugs or DMSO (vehicle) were added to the medium at 0.2% in both chambers. Migration assays were carried out for 12 hours in a humidified incubator at 37° C. with 5% CO2. Cells were then fixed with 3.7% formaldehyde, permeabilized with ice cold methanol and stained with a 0.2% Crystal violet solution. Non-migratory cells on the upper side of the insert were removed with a cotton swab. For quantification, three randomly selected fields on the lower side of the insert were photographed at 4× and 20× magnification using computer-assisted microscopy, and analyzed with CellProfiler2.0 cell image analysis software). The migration in response to the test condition was calculated relative to the DMSO vehicle control.
This assay provided reproducibly robust data, allowing dose-response studies to be carried out to determine the half maximal inhibitory concentration (IC50). […] Because we noticed a mild toxicity and effects on cell proliferation in the millimolar range, experiments with CME and ME at 1 mM or more were not included for the IC50 calculation.
Lung Cancer cell lines chemotaxis was performed in cell culture inserts after serum starvation and an overnight preincubation with an incremental logarithmic scale of drug concentration (ME and CME from 10^−3 to 10^−10M). Cancer cell migration in response to a serum gradient was measured after a 12 hour-long incubation in presence of different concentrations of ME or CME in both upper and lower chamber (three wells at each dose). Cells were then fixed and stained with Crystal violet, and photographed. […] Data are expressed as the mean+/−SEM of three independent experiments. Each experiment was performed in triplicate.

In another series the test system is AC3-TGL cells. The series can be described thus: human SCLC xenograft model, Example 17. Conditions: for tumor growth kinetics at the primary site of injection: all doses. The class given is in vivo. On the procedure: Evaluation of the anti-metastatic activity of ME (19) and CME (25) in a human SCLC xenograft model. These cells, in primary and subsequent in vivo passages in NOD/SCID mice, tend to form liver metastases. The tumor cells were stably transduced with a triple-fusion protein reporter construct (AC3-TGL), and then transplanted by subcutaneous injection with matrigel into NOD/SCID IL2R gamma null (NSG) mice.
Starting 1 day prior to the inoculation of tumor cells, groups of mice were treated with ME at doses of 10 mg/kg, 40 mg/kg, or 200 mg/kg, or with CME at 12 mg/kg or 49 mg/kg (note: dosage levels were adjusted to account for differences in molecular weight: 1 mg ME=1.2 mg CME). Control mice were treated with DMSO vehicle. The compounds were administered by i.p. injection every three days, from Day −1 to Day 55 following cell injection (n≧5 mice per group). During this time, tumor burden and metastatic spread were monitored by serial non-invasive bioluminescent imaging (BLI) at Days 14, 23, 30, 40, and 50. At Day 55, the mice were sacrificed and the metastatic spread of tumor cells to the lungs, liver, heart, kidneys, and spleen was assessed by ex-vivo BLI on the removed organs.
For the results depicted in FIGS. 7a-b: AC3-TGL cells were transplanted by subcutaneous ventral injection into NSG mice. Xenografted mice were treated with indicated dosages of CME or ME every 3 days starting 1 day prior to the inoculation of tumor cells: ME 10 mg/kg (ME10, n=5), 40 mg/kg (ME40, n=5), 200 mg/kg (ME200, n=5), CME 12 mg/kg (CME12, n=5), 49 mg/kg (CME49, n=5) and DMSO vehicle (control, n=6). At day 55, the mice were sacrificed. Three mice in the ME200 group died before the end of treatment. Tumor metastasis at endpoint: At day 55, mice were analyzed for metastasis by ex vivo BLI quantifying luciferase activity in the excised lungs, (Lu), liver (Li), heard (H), kidneys (K), and the spleen (S). Measurements for each mouse are presented in FIG. 7a (circles), with the average per group (short line) and expressed as photon flux (flux in photon/sec) in log scale. P-values were obtained using two-tailed Mann-Whitney U-test. Each picture is presented with the same settings (4 min exposure, photon signal, color scale from 3.10^4 (min) to 5.10^6 (max)).
Xenograft Model for Example 17: A human primary SCLC xenograft model was developed in 10-14 weeks old male NSG mice. Primary tumor samples were obtained after patient informed consent under an MSKCC IRB approved protocol. AC3-TGL tumor cells growing as clumps were dissociated into a single-cell suspension by Trypsin/Collagenase IV (Invitrogen) sequential treatment. Xenografts were performed by subcutaneous ventral injection of 500 AC3-TGL cells in serum-free medium mixed with Matrigel (Becton Dickinson).
One day prior to the tumor cell injection, mice were pretreated with either: (1) Migrastatin Ether (ME) at a dose of 10 mg/kg, 40 mg/kg or 200 mg/kg per mouse; (2) Carboxymethyl-ME (CME) at a dose of 12 mg/kg or 49 mg/kg; or (3) DMSO vehicle control (n≧5 mice per group). Drug treatment was delivered by intraperitoneal injection every 3 days starting from day −1 after cell injection to day 55. During this time, the tumor burden and metastatic spread were monitored by bioluminescence imaging (BLI) at day 14, 23, 30, 40, and 50. At day 55 (endpoint), the mice were killed and the metastatic spread of tumor cells to the lungs, liver, heart, kidneys, and spleen was assessed by ex-vivo BLI on the surgically resected organs.

In series [2] the test system is lung cancer (H299-GL, H522-GL, H647-GL, A549-GL, H1993, H1075-GL, H1373-GL H1703 cells). As to the kind of experiment: toxicity by alamarBlue, lung cancer cell lines. It counts as cell-based. Conditions: mean of 8 cell lines. On the procedure: Dilutions of DMSO without compound were used as a control. After 18 hrs or 2 days, the cultures were pulsed with 6 μl of alamarBlue® (Invitrogen Inc. Grand Island, N.Y.) and incubated overnight. The alamarBlue® provides a cell growth indicator based on detection of metabolic activity. The assay system incorporates an oxidation-reduction indicator that both fluoresces and changes color in response to chemical reduction of growth medium resulting from cell growth. The fluorescence intensity was measured using a Synergy H1 Microplate Reader (Biotek Inc, Winooski, VT) and a dose-response curve established for IC50 determination.
On the technique in general: The colour change of resazurin is a common sign of viable cells or microbes.

The structures appear in SMILES notation.

Regarding `CO[C@H]1/C=C/CCCCCOC/C(C)=C\[C@@H](C)[C@@H]1OCC(=O)O` [CME, Carboxymethyl migraether], in series [1], the IC50 (usually the concentration that inhibits the measured activity by half) lay in the range of 0.5 to 5 µM. The “toxicity and effects on cell proliferation” value in series [1] was “mild toxicity”. In addition, the “Inhibition factor (IF) of overall metastasis” value with AC3-TGL cells (12 mg/kg i.p. every 3 days, day 55) was determined as 99.3%; in the series with AC3-TGL cells (49 mg/kg i.p. every 3 days, day 55) it was 99.8%. In addition, the toxicity result with AC3-TGL cells (12 mg/kg or 49 mg/kg cohorts) was “no toxicity was observed”. In the series with AC3-TGL cells, the “tumor growth kinetics at the primary site of injection” value is reported as “did not significantly affect”. For the same compound, the “potency relative to ME in inhibiting in vivo metastasis” value with AC3-TGL cells (at the lowest dosage level) is recorded as “approximately 4 times”. Moreover, the entries for the “Estimated lethal doses (LD50)” value in series [2] (18 h exposure) and in series [2] (48 h exposure) were 553.9 µM and 697.9 µM, respectively.
On to `CO[C@H]1/C=C/CCCCCOC/C(C)=C\[C@@H](C)[C@@H]1O` [ME, migrastatin ether], for which the IC50 in series [1] lay within 1.5 to 8.2 µM. Moreover, in series [1], the “toxicity and effects on cell proliferation” value is recorded as “mild toxicity”. Further, the “deaths prior to the study endpoint” value with AC3-TGL cells (10 mg/kg group) worked out at 2 mice; with AC3-TGL cells (40 mg/kg group), 2 mice; in the series with AC3-TGL cells (200 mg/kg group), 3 mice. The “Inhibition factor (IF) of overall metastasis” value is 96.2% with AC3-TGL cells (10 mg/kg i.p. every 3 days, day 55); 99.1% in the series with AC3-TGL cells (40 mg/kg i.p. every 3 days, day 55); 99.8% in the series on AC3-TGL cells (200 mg/kg i.p. every 3 days, day 55, 2 surviving mice). Moreover, the “tumor growth kinetics at the primary site of injection” value in the series with AC3-TGL cells is given as “did not significantly affect”. For the same compound, in series [2] (48 h exposure), the “Estimated lethal doses (LD50)” value is 639.8 µM.
